Several values for one entry are separate records, joined by “and”; a condition that tells them apart may be missing. Equal entries are not always repeated.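 Tested at 5 concentrations; 48 h exposure; 96-well plates; endpoints linearly interpolated, else capped at highest concentration. At the GI50, growth is halved. TGI: concentration producing complete growth inhibition.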
Legend:
Test in all cases: DTP human tumour cell line panel, 48 h
M14 melanoma = tested on: M14 melanoma
CCRF-CEM leukemia = tested on: CCRF-CEM leukemia
HCT-116 colon = tested on: HCT-116 colon
SW-620 colon = tested on: SW-620 colon
SK-MEL-5 melanoma = tested on: SK-MEL-5 melanoma
MALME-3M melanoma = tested on: MALME-3M melanoma
OVCAR-5 ovarian = tested on: OVCAR-5 ovarian
ACHN renal = tested on: ACHN renal
NCI/ADR-RES ovarian = tested on: NCI/ADR-RES ovarian
SNB-19 CNS = tested on: SNB-19 CNS

Row | SMILES | GI50 (M14 melanoma) [µM] | TGI (M14 melanoma) | GI50 (CCRF-CEM leukemia) [µM] | TGI (CCRF-CEM leukemia) [µM] | GI50 (HCT-116 colon) [µM] | TGI (HCT-116 colon) [µM] | GI50 (SW-620 colon) [µM] | TGI (SW-620 colon) [µM] | GI50 (SK-MEL-5 melanoma) [µM] | TGI (SK-MEL-5 melanoma) | GI50 (MALME-3M melanoma) [µM] | TGI (MALME-3M melanoma) [µM] | GI50 (OVCAR-5 ovarian) [µM] | TGI (OVCAR-5 ovarian) [µM] | GI50 (ACHN renal) [µM] | TGI (ACHN renal) [µM] | GI50 (NCI/ADR-RES ovarian) [µM] | TGI (NCI/ADR-RES ovarian) | GI50 (SNB-19 CNS) [µM] | TGI (SNB-19 CNS)
1 | CN1C(=O)C2(c3ccccc31)N(c1ccc(Cl)cc1)C(=O)C2(c1ccccc1)c1ccccc1 (stereo unspecified) | 45.3 | > 100 µM | 9.72 | > 100 | 9.57 | > 100 | > 100 | > 100 | 54.5 | > 100 µM | 50.8 | > 100 | > 100 | > 100 | 78.4 | > 100 | 34.7 | > 100 µM | 22.4 | > 100 µM
2 | COc1cc2c(=O)[nH]c3cc([N+](=O)[O-])ccc3c2cc1[N+](=O)[O-] | 7 | > 100 µM | 3.99 | > 100 | 2.25 | > 100 | 3.81 | > 100 | 4.63 | > 100 µM | 9.91 | > 100 | 63.4 | > 100 | 3.71 | 91.4 | 5.29 | > 100 µM | 24.1 | > 100 µM
3 | O=C(Nc1nc2ccccc2s1)Nc1ccc([N+](=O)[O-])cc1Cl | 7.15 | 20.7 µM | 2.52 | > 49.4 | 2.12 | 4.54 | 2.86 | 7.82 | 7.3 | 22.1 µM | 2.82 | 11.1 | 10.4 | 25.7 | 6.53 | 18 | 2.99 | 9.93 µM | 8.2 | 26.7 µM
4 | CN1CSC(=S)N(Cc2ccccc2)C1 | 6.65 | 21.8 µM | 18 | > 100 | 4.49 | 15.6 | 3.16 | 12.4 | 13.1 | 26.1 µM | 15.4 | 37.4 | 16.5 | 30.2 | 14.1 | 27.1 | 28.2 | > 100 µM | 77.1 | > 100 µM
5 | CCN1CCN(C(=O)[C@]23CCC(C)(C)C[C@@H]2C2=CC[C@@H]4[C@@]5(C)C/C(=C/c6ccncc6)C(=O)C(C)(C)[C@@H]5CC[C@@]4(C)[C@]2(C)CC3)CC1 | 1.54 | 3.17 µM | 1.7 | 5.32 | 1.35 | 2.87 | 1.48 | 3.14 | 1.6 | 2.99 µM | 1.65 | 3.14 | 1.66 | 3.15 | 1.6 | 2.95 | 1.48 | 3.17 µM | 1.48 | 2.86 µM
6 | Cn1c(-c2c(N)n(CCCN3CCOCC3)c3nc(C#N)c(C#N)nc23)nc2ccccc21 | > 100 | > 100 µM | 2.69 | > 28.9 | 4.03 | > 33.4 | 1.74 | > 45 |  | > 44.9 µM | 31.9 | > 83.7 | > 77.7 | > 100 | 41.7 | > 100 | > 28.3 | > 100 µM | 23.8 | > 100 µM
7 | O=C1Cc2cc(C(=O)NC3C[C@H]4CC[C@@H](C3)N4S(=O)(=O)CC3CCN(CCCC(F)(F)F)CC3)c(Cl)cc2N1 (stereo partly specified) | > 100 | > 100 µM | > 100 | > 100 | > 100 | > 100 | > 100 | > 100 | > 100 | > 100 µM | > 100 | > 100 | > 100 | > 100 | > 100 | > 100 | > 100 | > 100 µM | > 100 | > 100 µM
8 | O=C(COc1cccc(/C=C2\CSc3ccccc3C2=O)c1)Nc1nccs1 | 1.88 | 4.06 µM | 1.26 | 4.06 | 1.6 | 2.96 | 1.95 | 4.52 | 2.38 | 15.5 µM | 1.54 | 3.11 | 3.08 | 15.5 | 2.66 | 7.96 | 3.2 | 11 µM | 6.48 | 19.6 µM
9 | NS(=O)(=O)OCCCCCCCOS(N)(=O)=O |  | 579 µM |  | 1140 |  | 820 |  | 1280 |  | 649 µM |  | 1050 |  | 1400 |  | 951 |  | 1050 µM |  | 1250 µM
10 | O=C1/C=C/[C@@H](O)[C@@H]2C[C@@H](O)C[C@H]2/C=C/CCC[C@H](C(F)(F)F)O1 | 0.171 | 3.71 µM | 0.205 | 0.916 | 0.153 | 0.385 | 0.142 | 0.331 | 0.128 | 0.32 µM | 0.0437 | 0.292 | 0.933 | 24.7 | 0.197 |  | 0.408 | 11.4 µM | 6.98 | > 100 µM
11 | COC(=O)c1ccc(NC(=O)Oc2ccc(N(CCCl)CCCl)cc2)cc1 | 5.97 | > 100 µM | 0.782 | > 100 | 11.2 | > 100 | 4.89 | > 100 | 13.1 | > 100 µM | 18.4 | 71.1 | 30.8 | > 100 | 1.4 | 16.4 | 6.54 | 53.8 µM | 5.17 | > 100 µM
12 | CCCCCCCCCCCCCC[C@@H](O)[C@H]1CC[C@H]([C@H]2CC[C@H]([C@H](O)CCCCCC[C@@H](O)CC3=C[C@H](C)OC3=O)O2)O1 | 1.74 | 3.44 µM and > 25 µM | 2.06 | > 25 | 2.2 | > 25 | 2.44 | > 25 | 0.717 | 2.52 µM and > 25 µM |  | > 25 | 4.61 | > 25 | 1.02 |  | 0.676 | 2.95 µM and > 25 µM | 1.75 | 7.71 µM and > 25 µM
13 | O=c1[nH]cnc2c1nnn2CCCCCCCCCCCCn1nnc2c(=O)[nH]cnc21 |  | > 100 µM |  | > 100 |  | > 84.1 |  | > 100 |  | > 100 µM |  | > 100 |  | > 100 |  | > 100 |  | > 100 µM |  | 54.9 µM

Reference: PubChem BioAssay (NCI)
